Active and inactive are the calls of the source. The calls are words filed in the database; no cut-off is given here.
Assays:
Type in all cases: cell-based
[1] = molecular target: T1, Oxysterols receptor LXR-alpha (Homo sapiens, UniProt Q13133); assay: Agonist activity at full length human LXRalpha expressed in HEK293 cells harboring LXRE-Luc promoter by luciferase reporter gene assay
T1 sequence (Q13133 whole entry): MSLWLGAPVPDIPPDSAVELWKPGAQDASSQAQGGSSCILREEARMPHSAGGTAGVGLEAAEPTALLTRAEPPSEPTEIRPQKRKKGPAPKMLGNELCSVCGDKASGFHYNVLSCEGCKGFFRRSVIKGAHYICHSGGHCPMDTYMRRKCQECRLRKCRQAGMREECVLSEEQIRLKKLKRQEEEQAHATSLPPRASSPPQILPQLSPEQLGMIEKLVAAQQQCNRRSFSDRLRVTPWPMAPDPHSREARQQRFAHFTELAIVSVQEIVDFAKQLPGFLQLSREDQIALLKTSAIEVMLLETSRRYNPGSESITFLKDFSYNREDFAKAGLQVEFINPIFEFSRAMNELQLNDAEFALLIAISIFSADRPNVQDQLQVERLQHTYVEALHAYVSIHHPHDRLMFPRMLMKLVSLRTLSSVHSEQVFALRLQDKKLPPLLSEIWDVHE

[2] = molecular target: T2, Oxysterols receptor LXR-alpha (Homo sapiens) (UniProt Q13133); assay: Agonist activity at full length human LXRalpha expressed in HEK293 cells harboring LXRE-Luc promoter at 10 uM by luciferase reporter gene assay relative to T0901317
T2 sequence (whole entry): T1 sequence (Q13133 whole entry)

[3] = molecular target: T3, Oxysterols receptor LXR-beta (Homo sapiens, UniProt P55055); assay: Agonist activity at full length human LXRbeta expressed in HEK293 cells harboring LXRE-Luc promoter by luciferase reporter gene assay
T3 sequence (P55055 whole entry): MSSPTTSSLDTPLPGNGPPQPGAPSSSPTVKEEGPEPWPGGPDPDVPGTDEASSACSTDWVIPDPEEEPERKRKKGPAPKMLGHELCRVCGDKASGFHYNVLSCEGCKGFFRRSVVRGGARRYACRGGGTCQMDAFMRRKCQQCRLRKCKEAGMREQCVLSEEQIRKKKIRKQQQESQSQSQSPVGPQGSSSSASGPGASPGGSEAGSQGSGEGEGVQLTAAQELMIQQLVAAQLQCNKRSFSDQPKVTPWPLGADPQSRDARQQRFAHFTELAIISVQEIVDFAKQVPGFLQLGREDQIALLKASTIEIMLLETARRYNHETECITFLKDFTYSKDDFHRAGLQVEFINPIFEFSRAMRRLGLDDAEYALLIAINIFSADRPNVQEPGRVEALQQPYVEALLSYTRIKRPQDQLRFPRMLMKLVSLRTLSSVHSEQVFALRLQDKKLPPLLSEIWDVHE

[4] = molecular target: T4, Oxysterols receptor LXR-beta (Homo sapiens) (UniProt P55055); assay: Agonist activity at full length human LXRbeta expressed in HEK293 cells harboring LXRE-Luc promoter at 10 uM by luciferase reporter gene assay relative to T0901317
T4 sequence (whole entry): T3 sequence (P55055 whole entry)

[5] = species: Homo sapiens; assay: Selectivity ratio of EC50 for full length human LXRalpha expressed in HEK293 cells to EC50 for full length human LXRbeta expressed in HEK293 cells

Brc1ccc(-c2n[nH]c(-c3ccccc3)n2)cc1
EC50 [1]: 164 nM
Emax [2]: 55%
EC50 [3]: 68 nM
Emax [4]: 62%
Ratio EC50 [5]: 2.41

CCn1nc(-c2ccc(Br)cc2)nc1-c1ccccc1
EC50 [1]: 2240 nM
Emax [2]: 45%
EC50 [3]: 5650 nM
Emax [4]: 71%
Ratio EC50 [5]: 0.4

Cn1nc(-c2ccccc2)nc1-c1ccccc1
EC50 [1]: 2470 nM
Emax [2]: 64%
EC50 [3]: 2640 nM
Emax [4]: 71%
Ratio EC50 [5]: 0.94

CCn1nc(-c2ccc(Cl)cc2)nc1-c1ccccc1
EC50 [1]: 2290 nM
Emax [2]: 60%
Emax [4]: inactive

Clc1ccc(-c2nc(-c3ccccc3)n(Cc3ccccc3)n2)cc1
EC50 [1]: 2130 nM
Emax [2]: 53%
EC50 [3]: 6710 nM
Emax [4]: 61%
Ratio EC50 [5]: 0.32

COc1cccc(-c2nc(-c3ccccc3)n(C(C)=O)n2)c1
EC50 [1]: 115 nM
Emax [2]: 62%
EC50 [3]: 109 nM
Emax [4]: 78%
Ratio EC50 [5]: 1.06

CC(=O)n1nc(-c2ccc(C)cc2)nc1-c1ccccc1
EC50 [1]: 228 nM
Emax [2]: 53%
EC50 [3]: 351 nM
Emax [4]: 62%
Ratio EC50 [5]: 0.65

CC(=O)n1nc(-c2ccc(Br)cc2)nc1-c1ccccc1
EC50 [1]: 113 nM
EC50 [3]: 231 nM

CC(=O)n1nc(-c2ccccc2)nc1-c1ccccc1
EC50 [1]: 396 nM
EC50 [3]: 232 nM

CCCCn1nc(-c2ccc(Cl)cc2)nc1-c1ccccc1
Emax [2]: inactive
Emax [4]: inactive

Cc1ccc(-c2n[nH]c(-c3ccccc3)n2)cc1
EC50 [1]: 77 nM
Emax [2]: 62%
EC50 [3]: 85 nM
Emax [4]: 73%
Ratio EC50 [5]: 0.91

Brc1ccccc1-c1n[nH]c(-c2ccccc2)n1
EC50 [1]: 390 nM
Emax [2]: 52%
EC50 [3]: 493 nM
Emax [4]: 67%
Ratio EC50 [5]: 0.79

Brc1ccc(-c2nc(-c3ccccc3)n(Cc3ccccc3)n2)cc1
EC50 [1]: 5030 nM
Emax [2]: 78%
EC50 [3]: 712 nM
Emax [4]: 69%
Ratio EC50 [5]: 7.06

Cc1ccc(S(=O)(=O)n2nc(-c3ccccc3)nc2-c2ccccc2)cc1
EC50 [1]: 1700 nM
Emax [2]: 75%
EC50 [3]: 259 nM
Emax [4]: 81%
Ratio EC50 [5]: 6.58

c1ccc(Cc2nc(-c3ccccc3)n[nH]2)cc1
EC50 [1]: 2200 nM
EC50 [3]: 6150 nM
Ratio EC50 [5]: 0.36

Clc1ccccc1-c1n[nH]c(Cc2ccccc2)n1
EC50 [1]: 570 nM
Emax [2]: 46%
EC50 [3]: 966 nM
Emax [4]: 61%
Ratio EC50 [5]: 0.59

Clc1ccccc1-c1n[nH]c(-c2ccccc2)n1
EC50 [1]: 526 nM
EC50 [3]: 640 nM

COc1cccc(-c2n[nH]c(-c3ccccc3)n2)c1
EC50 [1]: 108 nM
Emax [2]: 60%
EC50 [3]: 68 nM
Emax [4]: 72%
Ratio EC50 [5]: 1.59

CCCCn1nc(-c2ccccc2)nc1-c1ccccc1
EC50 [1]: 2470 nM
Emax [2]: 65%
Emax [4]: inactive

Clc1ccc(-c2n[nH]c(Cc3ccccc3)n2)cc1
Emax [2]: inactive
EC50 [3]: 2570 nM
Emax [4]: 73%

c1ccc(Cn2nc(-c3ccccc3)nc2-c2ccccc2)cc1
EC50 [1]: 2180 nM
Emax [2]: 58%
Emax [4]: inactive

CC(=O)n1nc(Cc2ccccc2)nc1-c1ccccc1
EC50 [1]: 701 nM
Emax [2]: 50%
EC50 [3]: 1420 nM
Emax [4]: 68%
Ratio EC50 [5]: 0.49

CCn1nc(-c2ccccc2)nc1-c1ccccc1
Emax [2]: inactive
Emax [4]: inactive

Clc1ccc(-c2n[nH]c(-c3ccccc3)n2)cc1
EC50 [1]: 309 nM
Emax [2]: 51%
EC50 [3]: 245 nM
Emax [4]: 60%
Ratio EC50 [5]: 1.26

c1ccc(-c2n[nH]c(-c3cccnc3)n2)cc1
Emax [2]: inactive
Emax [4]: inactive

COc1cccc(-c2nc(-c3ccccc3)n(S(=O)(=O)c3ccc(C)cc3)n2)c1
Emax [2]: inactive
Emax [4]: inactive

c1ccc(-c2nc(-c3ccccc3)n(C3CC3)n2)cc1
Emax [2]: inactive
Emax [4]: inactive

c1ccc(-c2n[nH]c(-c3ccccc3)n2)cc1
EC50 [1]: 142 nM
EC50 [3]: 1010 nM

COc1cccc(-c2nc(-c3ccccc3)n(Cc3ccccc3)n2)c1
EC50 [1]: 903 nM
Emax [2]: 62%
EC50 [3]: 2360 nM
Emax [4]: 69%
Ratio EC50 [5]: 0.38

Cn1nc(-c2ccc(Cl)cc2)nc1-c1ccccc1
EC50 [1]: 1190 nM
Emax [2]: 77%
EC50 [3]: 1990 nM
Emax [4]: 83%
Ratio EC50 [5]: 0.6

From ChEMBL document CHEMBL4371087, “Development of novel liver X receptor modulators based on a 1,2,4-triazole scaffold” (Bioorg Med Chem Lett, 2019)
